Laboratory results published in ChEMBL document CHEMBL3526000 (Drug Metab Dispos, 2012).

Columns and labels:
Format in all cases: ADME
Liver microsome = assay: Drug metabolism assessed as Sprague-Dawley rat liver microsomes assessed as compound formation treated with at 100 uM haloperidol by LC-MS/MS analysis
[1] = target: T1, UDP-glucuronosyltransferase 1A4 (Homo sapiens, UniProt P22310); assay: Drug metabolism assessed as UGT1A4 activity in human liver microsome assessed as of N-glucuronidation at 25 to 200 uM incubated for 60 mins by LC-MS/MS analysis; settings: microsomes, 1 h
T1 sequence (P22310 whole entry): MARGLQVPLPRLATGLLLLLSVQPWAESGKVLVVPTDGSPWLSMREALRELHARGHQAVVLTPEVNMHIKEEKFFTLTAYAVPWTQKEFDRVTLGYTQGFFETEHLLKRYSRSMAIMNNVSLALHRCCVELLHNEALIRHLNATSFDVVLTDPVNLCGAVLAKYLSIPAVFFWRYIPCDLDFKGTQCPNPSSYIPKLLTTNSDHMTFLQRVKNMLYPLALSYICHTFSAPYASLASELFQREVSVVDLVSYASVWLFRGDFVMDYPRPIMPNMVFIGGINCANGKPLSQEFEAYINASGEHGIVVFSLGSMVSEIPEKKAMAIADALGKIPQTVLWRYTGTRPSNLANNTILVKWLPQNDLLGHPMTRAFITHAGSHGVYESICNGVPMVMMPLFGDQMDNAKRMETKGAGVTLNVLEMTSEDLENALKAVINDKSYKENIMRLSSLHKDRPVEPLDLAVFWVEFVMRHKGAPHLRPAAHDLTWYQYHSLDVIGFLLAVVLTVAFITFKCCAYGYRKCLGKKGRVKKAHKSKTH

[2] = target: T2, UDP-glucuronosyltransferase 2B7 (Homo sapiens, UniProt P16662); assay: Drug metabolism assessed as UGT2B7 activity in human liver microsome assessed as of O-glucuronidation at 25 to 200 uM incubated for 60 mins by LC-MS/MS analysis; settings: microsomes, 1 h
T2 sequence (P16662 whole entry): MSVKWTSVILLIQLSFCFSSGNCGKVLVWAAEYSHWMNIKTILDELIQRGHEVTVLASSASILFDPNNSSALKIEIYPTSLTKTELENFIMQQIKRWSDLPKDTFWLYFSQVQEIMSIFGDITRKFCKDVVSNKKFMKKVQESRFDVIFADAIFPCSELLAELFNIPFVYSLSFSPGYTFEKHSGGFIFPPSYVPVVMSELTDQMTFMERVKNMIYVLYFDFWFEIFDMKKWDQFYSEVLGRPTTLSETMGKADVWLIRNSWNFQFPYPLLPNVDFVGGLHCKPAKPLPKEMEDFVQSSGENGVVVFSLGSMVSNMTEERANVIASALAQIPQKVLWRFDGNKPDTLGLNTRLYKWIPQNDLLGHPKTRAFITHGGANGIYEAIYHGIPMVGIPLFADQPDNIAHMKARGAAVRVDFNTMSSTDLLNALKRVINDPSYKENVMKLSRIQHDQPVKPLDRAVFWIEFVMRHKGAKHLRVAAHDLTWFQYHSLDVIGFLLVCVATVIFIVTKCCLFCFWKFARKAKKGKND

O=C(CCCN1CCC(O[C@@H]2O[C@H](C(=O)O)[C@@H](O)[C@H](O)[C@H]2O)(c2ccc(Cl)cc2)CC1)c1ccc(F)cc1
Drug metabolism (Liver microsome): metabolite_detected

CN1CCN(CCCN2c3ccccc3Sc3ccc(C(F)(F)F)cc32)CC1.Cl
Drug metabolism [1]: 0.26 nmol/min/mg

Cc1cn([C@H]2C[C@H](N=[N+]=[N-])[C@@H](CO)O2)c(=O)[nH]c1=O [ZIDOVUDINE]
Drug metabolism [2]: 0.14 nmol/min/mg
